SMILES strings stand for the structures.

The target of one data set is T1, soybean lipoxygenase (Glycine max, UniProt P08170).
T1 construct: purchased Sigma Aldrich- Merck KGaA, Darmstadt, Germany
T1 sequence (P08170 1-839): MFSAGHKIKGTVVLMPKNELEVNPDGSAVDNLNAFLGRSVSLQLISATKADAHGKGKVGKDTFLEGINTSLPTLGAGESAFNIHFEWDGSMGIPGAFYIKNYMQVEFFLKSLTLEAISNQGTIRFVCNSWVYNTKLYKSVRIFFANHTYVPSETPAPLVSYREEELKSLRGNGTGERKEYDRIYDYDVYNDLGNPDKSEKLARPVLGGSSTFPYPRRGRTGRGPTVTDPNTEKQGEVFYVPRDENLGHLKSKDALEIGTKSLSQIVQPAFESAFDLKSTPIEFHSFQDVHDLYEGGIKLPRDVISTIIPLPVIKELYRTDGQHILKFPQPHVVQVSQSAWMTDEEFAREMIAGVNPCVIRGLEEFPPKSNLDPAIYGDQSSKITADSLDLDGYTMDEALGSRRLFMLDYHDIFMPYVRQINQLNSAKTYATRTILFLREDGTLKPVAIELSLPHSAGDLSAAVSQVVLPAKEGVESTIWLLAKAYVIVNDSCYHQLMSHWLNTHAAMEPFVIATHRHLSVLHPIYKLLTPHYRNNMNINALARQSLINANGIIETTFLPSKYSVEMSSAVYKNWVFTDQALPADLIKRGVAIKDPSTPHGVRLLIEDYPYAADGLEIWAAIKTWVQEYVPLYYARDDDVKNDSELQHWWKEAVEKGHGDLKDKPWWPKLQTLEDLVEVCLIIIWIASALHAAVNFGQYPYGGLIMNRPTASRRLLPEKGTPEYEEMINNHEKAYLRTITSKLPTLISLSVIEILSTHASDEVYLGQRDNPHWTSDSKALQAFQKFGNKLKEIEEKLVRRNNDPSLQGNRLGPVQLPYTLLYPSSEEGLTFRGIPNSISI
In words: Inhibition of soybean lipoxygenase. The data set is classed as biochemical. To be noted: for inhibition at 100 µM: read-out: LOX % Inhibition 100 μM; for IC50: cells of the mixed column with μM, read-out: LOX IC50. The source says: Lipoxygenase (LOX) is the key enzyme in the biosynthesis of inflammatory mediators; thus, it is considered a target for inflammatory diseases. Soybean LOX is a plant enzyme that has been used widely as a prototype for studying the functional and structural properties of the homologous family of lipoxygenases, presenting satisfactory homology with the human 5-LOX [42]. Linoleic acid is the most common substrate in plant LOX. […] Lipophilicity is considered one of the most important parameters with regard to LOX inhibitors according to the literature.
In vitro study was performed as reported previously by our group. In this experiment, 10 μL of the tested compound (from the stock solution) were incubated with 100 μL sodium linoleate (diluted in Tris buffer), 200 μL LOX solution (1:9 × 10^−4 w/v in saline) and 690 μL Tris buffer (pH 9.0) at room temperature. The absorbance was measured at 234 nm, where the change of absorbance was recorded due to the formation of 13-hydroperoxy-linoleic acid. […] In order to determine the IC50 values, different concentrations were used.

Data set [1] can be described thus: Reducing activity of the stable radical DPPH. How it is done: All the synthesized compounds were studied for their ability to interact with the stable free 2,2-diphenyl-1-picrylhydrazyl radical (DPPH) at a concentration of 100 μM after 20 min and 60 min (Table 4). This assay is based on the reduction of DPPH by transferring one electron from the antioxidant.
In vitro study was performed as reported previously by our group. In this experiment, 20 μL of the tested compound (from the stock solution), 980 μL EtOH and 1 mL ethanolic solution of DPPH (100 μM) were added in a testing tube in a final volume of 2 mL. The free radical scavenging ability was evaluated by recording the change of absorbance at 517 nm, produced by the reduction of DPPH, after 20 and 60 min at room temperature.
(Loss of DPPH colour is used to gauge radical scavenging.)

Where [2] appears, read: 100 μM, cells of the mixed column without μM.

Take `O=C(/C=C/c1ccc(Cl)cc1)c1ccc(Cl)cc1` [Compound 1f, (E)-1,3-bis(4-chlorophenyl)prop-2-en-1-one]: the melting point (commonly the temperature, or range, at which the solid turns liquid) was in the range of 160 to 162 °C. Besides, the inhibition (commonly the share of the control response that was lost under treatment) at 100 µM at soybean lipoxygenase (setting [2]) turned out to be 4%. In data set [1], the “RA % 100 μM 20 min” value is “no” and the “RA % 100 μM 60 min” value is given as “no”.

`O=c1[nH]c(=S)[nH]c2nc(-c3ccccc3)cc(-c3ccc(Cl)cc3Cl)c12` [Compound 2g, 5-(2,4-dichlorophenyl)-7-phenyl-2-thioxo-2,3-dihydropyrido [2,3-d]pyrimidin-4(1H)-one] showed a melting point of more than 300 °C. In addition, on soybean lipoxygenase, the IC50 (usually the point on the concentration scale where inhibition reaches its midpoint) turned out to be 54 µM. Also, in data set [1], the “RA % 100 μM 20 min” value was determined as 1% and the “RA % 100 μM 60 min” value is “no”.

With `O=C(/C=C/c1cccs1)c1ccc(Cl)cc1` [Compound 1d, (E)-1-(4-chlorophenyl)-3-(thiophen-2-yl)prop-2-en-1-one], the IC50 at soybean lipoxygenase was determined as 72.5 µM. Also, in data set [1], the “RA % 100 μM 20 min” value was “no” and the “RA % 100 μM 60 min” value is reported as “no”.

Regarding `O=C(/C=C/c1ccccc1)c1ccc(Cl)cc1` [Compound 1b, (E)-1-(4-chlorophenyl)-3-phenylprop-2-en-1-one], the inhibition at 100 µM at soybean lipoxygenase (setting [2]) is 39%. Moreover, in data set [1], the “RA % 100 μM 20 min” value is listed as “no” and the “RA % 100 μM 60 min” value is 4%.

With `O=c1[nH]c(=S)[nH]c2nc(-c3ccccc3)cc(-c3ccccc3)c12` [Compound 2a, 5,7-diphenyl-2-thioxo-2,3-dihydropyrido [2,3-d]pyrimidin-4(1H)-one], the melting point is more than 300 °C. The IC50 on soybean lipoxygenase amounted to 42 µM. In data set [1], the “RA % 100 μM 20 min” value was determined as 29% and the “RA % 100 μM 60 min” value was determined as 56%.

In the case of `O=C(/C=C/c1ccccc1)c1ccccc1` [Compound 1a, (E)-1,3-diphenylprop-2-en-1-one], the inhibition at 100 µM at soybean lipoxygenase (setting [2]) stood at 26%. For the same compound, in data set [1], the “RA % 100 μM 20 min” value was determined as 22% and the “RA % 100 μM 60 min” value is reported as “no”.

In the case of `O=C(/C=C/c1ccc(Cl)cc1)c1ccccc1` [Compound 1e, (E)-3-(4-chlorophenyl)-1-phenylprop-2-en-1-one], the IC50 at soybean lipoxygenase came to 55.5 µM. Moreover, in data set [1], the “RA % 100 μM 20 min” value is listed as “no” and the “RA % 100 μM 60 min” value was “no”.

`O=c1[nH]c(=S)[nH]c2nc(-c3ccc(Cl)cc3)cc(-c3ccc(Cl)cc3)c12` [Compound 2f, 5,7-bis(4-chlorophenyl)-2-thioxo-2,3-dihydropyrido [2,3-d]pyrimidin-4(1H)-one] showed a melting point of more than 300 °C. Also, the IC50 at soybean lipoxygenase stood at 47.5 µM. Further, in data set [1], the “RA % 100 μM 20 min” value is “no” and the “RA % 100 μM 60 min” value is “no”.

Compound `O=c1[nH]c(=S)[nH]c2nc(-c3ccccc3)cc(-c3cccs3)c12` [Compound 2c, 7-phenyl-5-(thiophen-2-yl)-2-thioxo-2,3-dihydropyrido [2,3-d]pyrimidin-4(1H)-one] showed a melting point of 260 to 262 °C. The IC50 at soybean lipoxygenase turned out to be 68.5 µM. Moreover, in data set [1], the “RA % 100 μM 20 min” value amounted to 14% and the “RA % 100 μM 60 min” value was 10%.

On to `O=c1[nH]c(=S)[nH]c2nc(-c3ccc(Cl)cc3)cc(-c3cccs3)c12` [Compound 2d, 7-(4-chlorophenyl)-5-(thiophen-2-yl)-2-thioxo-2,3-dihydropyrido [2,3-d]pyrimidin-4(1H)-one], for which the melting point is more than 300 °C. At soybean lipoxygenase, the IC50 came out at 70 µM. Moreover, in data set [1], the “RA % 100 μM 20 min” value was “no” and the “RA % 100 μM 60 min” value was “no”.

`O=c1[nH]c(=S)[nH]c2nc(-c3ccc(Cl)cc3)cc(-c3ccccc3)c12` [Compound 2b, 7-(4-chlorophenyl)-5-phenyl-2-thioxo-2,3-dihydropyrido [2,3-d]pyrimidin-4(1H)-one] registered a melting point of more than 300 °C. For the same compound, the inhibition at 100 µM at soybean lipoxygenase (setting [2]) came out at 6%. Also, in data set [1], the “RA % 100 μM 20 min” value is “no” and the “RA % 100 μM 60 min” value was found to be 1%.

As for `O=C(/C=C/c1ccc(Cl)cc1Cl)c1ccc(Cl)cc1` [Compound 1h, (E)-1-(4-chlorophenyl)-3-(2,4-dichlorophenyl)prop-2-en-1-one], on soybean lipoxygenase (setting [2]), the “LOX % Inhibition 100 μM” value is recorded as “no”. Also, in data set [1], the “RA % 100 μM 20 min” value is given as “no” and the “RA % 100 μM 60 min” value is reported as “no”.

In the case of `O=C(/C=C/c1ccc(Cl)cc1Cl)c1ccccc1` [Compound 1g, (E)-3-(2,4-dichlorophenyl)-1-phenylprop-2-en-1-one], the melting point lay within 68 to 70 °C. In addition, on soybean lipoxygenase, the 50% inhibitory concentration (IC50) turned out to be 17 µM. Further, in data set [1], the “RA % 100 μM 20 min” value worked out at 2% and the “RA % 100 μM 60 min” value was 8%.

For `O=c1[nH]c(=S)[nH]c2nc(-c3ccccc3)cc(-c3ccc(Cl)cc3)c12` [Compound 2e, 5-(4-chlorophenyl)-7-phenyl-2-thioxo-2,3-dihydropyrido [2,3-d]pyrimidin-4(1H)-one], the melting point was more than 300 °C. Further, the IC50 at soybean lipoxygenase came to 76 µM. In data set [1], the “RA % 100 μM 20 min” value came out at 24% and the “RA % 100 μM 60 min” value stood at 42%.

`O=c1[nH]c(=S)[nH]c2nc(-c3ccc(Cl)cc3)cc(-c3ccc(Cl)cc3Cl)c12` [Compound 2h, 7-(4-chlorophenyl)-5-(2,4-dichlorophenyl)-2-thioxo-2,3-dihydropyrido [2,3-d]pyrimidin-4(1H)-one] returned a melting point of 274 to 276 °C. For the same compound, the inhibition at 100 µM at soybean lipoxygenase (setting [2]) amounted to 27%. In data set [1], the “RA % 100 μM 20 min” value is listed as “no” and the “RA % 100 μM 60 min” value is given as “no”.

The values above are taken from PMC10180197, “Novel Pyrimidine Derivatives as Antioxidant and Anticancer Agents: Design, Synthesis and Molecular Modeling Studies” (Molecules, 2023).
